Values joined by “and” are separate entries in the source; they are usually repeats but may differ in a detail not shown here. Equal values may be shown once. Toxic doses and inconclusive results are not listed.

Here are results for 18 molecules from PubChem BioAssay AID248 (DTP/NCI, 2004).

In this test the test system is L1210 leukemia ip in BDF1 mice, survival T/C. The test is described as follows: NCI In Vivo Anticancer Drug Screen. Data for tumor model L1210 Leukemia (intraperitoneal) in B6D2F1 (BDF1) mice. The settings on record: endpoint: mean survival time, higher = longer survival. The method in brief: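 Survival endpoint. Drug-treated group vs vehicle group, expressed as T divided by C. Tumor passaged by transplantation.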

Setting [1] is: dose: 100.0 mg/kg/injection, schedule: Q01DX009 (ip), vehicle: saline with Tween-80.
[2] abbreviates: dose: 100.0 mg/kg/injection, schedule: Q04DX003 (ip), vehicle: saline.
The mark [3] stands for this setting: dose: 200.0 mg/kg/injection, schedule: Q01DX009 (ip), vehicle: saline with Tween-80.
[4] abbreviates: dose: 200.0 mg/kg/injection, schedule: Q04DX003 (ip), vehicle: saline.
Setting [5] is: dose: 400.0 mg/kg/injection, schedule: Q04DX003 (ip), vehicle: saline.
Setting [6] is: dose: 100.0 mg/kg/injection, schedule: Q04DX003 (ip), vehicle: saline with Tween-80.
[7] abbreviates: dose: 200.0 mg/kg/injection, schedule: Q04DX003 (ip), vehicle: saline with Tween-80.
The mark [8] stands for this setting: dose: 50.0 mg/kg/injection, schedule: Q01DX009 (ip), vehicle: saline with Tween-80.
[9] abbreviates: dose: 400.0 mg/kg/injection, schedule: Q04DX003 (ip), vehicle: saline with Tween-80.

In the case of `O=C(CCc1ccc(C(=O)Nc2ccc(C3=NCCN3)cc2)cc1)Nc1ccc(C2=NCCN2)cc1`, the T/C reads like this: (dose: 1.87 mg/kg/injection, schedule: Q01DX Z (ip), vehicle: carboxymethylcellulose (CMC)) 101 % of control; (dose: 3.75 mg/kg/injection, schedule: Q01DX Z (ip), vehicle: carboxymethylcellulose (CMC)) 103 % of control; (dose: 7.5 mg/kg/injection, schedule: Q01DX Z (ip), vehicle: carboxymethylcellulose (CMC)) 99 % of control; (dose: 15.0 mg/kg/injection, schedule: Q01DX Z (ip), vehicle: carboxymethylcellulose (CMC)) 235 % of control; (dose: 30.0 mg/kg/injection, schedule: Q01DX Z (ip), vehicle: carboxymethylcellulose (CMC)) 223 % of control and 295 % of control; (dose: 60.0 mg/kg/injection, schedule: Q01DX Z (ip), vehicle: carboxymethylcellulose (CMC)) 239 % of control and 262 % of control.
Regarding `N=C(CN1CCCCC1)N1CCCCC1`, the T/C (dose: 100.0 mg/kg/injection, schedule: Q04DX002 (ip), vehicle: saline) is 104 % of control.
As for `CC(=O)Nc1ccc2c(c1)Cc1cc(NC=O)ccc1-2`, the T/C reads like this: (dose: 50.0 mg/kg/injection, schedule: Q01DX001 (ip), vehicle: carboxymethylcellulose (CMC)) 101 % of control; (dose: 100.0 mg/kg/injection, schedule: Q01DX001 (ip), vehicle: carboxymethylcellulose (CMC)) 95 % of control; under setting [1], 102 % of control; under setting [2], 97 % of control; (dose: 200.0 mg/kg/injection, schedule: Q01DX001 (ip), vehicle: carboxymethylcellulose (CMC)) 101 % of control; under setting [3], 95 % of control. Besides, the T/C reads like this: under setting [4], 93 % of control; (dose: 400.0 mg/kg/injection, schedule: Q01DX001 (ip), vehicle: carboxymethylcellulose (CMC)) 101 % of control; (dose: 400.0 mg/kg/injection, schedule: Q01DX009 (ip), vehicle: saline with Tween-80) 98 % of control; under setting [5], 95 % of control.
On to `Oc1c(Br)cc(Br)c2cccnc12`, for which the T/C (dose: 100.0 mg/kg/injection, schedule: Q01DX009 (ip), vehicle: Klucel (hydroxypropylcellulose) (HPC)) is 100 % of control; the T/C under setting [2] was 98 % of control; the T/C (dose: 200.0 mg/kg/injection, schedule: Q01DX009 (ip), vehicle: Klucel (hydroxypropylcellulose) (HPC)) is 91 % of control; the T/C under setting [4] is 102 % of control; the T/C (dose: 400.0 mg/kg/injection, schedule: Q01DX009 (ip), vehicle: Klucel (hydroxypropylcellulose) (HPC)) was 86 % of control; the T/C under setting [5] was 96 % of control.
Turning to `O=C1NCCCC1c1nc2cccc3c2n1CCC3` (configuration not stated), the T/C is 94 % of control (dose: 100.0 mg/kg/injection, schedule: Q04DX003 (ip), vehicle: Klucel (hydroxypropylcellulose) (HPC)); 108 % of control (dose: 200.0 mg/kg/injection, schedule: Q04DX003 (ip), vehicle: Klucel (hydroxypropylcellulose) (HPC)); 97 % of control (dose: 400.0 mg/kg/injection, schedule: Q04DX003 (ip), vehicle: Klucel (hydroxypropylcellulose) (HPC)).
With `Oc1c(Br)cc(Br)cc1C=Nc1ccc(I)cc1.Oc1c(Br)cc(Br)cc1C=Nc1ccc(I)cc1.[Co]`, the T/C reads like this: under setting [6], 98 % of control; under setting [7], 92 % of control.
As to `O=C(NC1CCCCC1)c1ccc(Cl)cc1Cl`, the T/C is, setting by setting: under setting [8], 100 % of control; under setting [1], 100 % of control; under setting [3], 96 % of control.
For `CC(C)(C)C1CCC(N=C(N)CCl)CC1` (configuration not stated), the T/C was 98 % of control (dose: 6.25 mg/kg/injection, schedule: Q01DX009 (ip), vehicle: Klucel (hydroxypropylcellulose) (HPC)); 102 % of control (dose: 12.5 mg/kg/injection, schedule: Q01DX009 (ip), vehicle: Klucel (hydroxypropylcellulose) (HPC)); 103 % of control (dose: 12.5 mg/kg/injection, schedule: Q04DX002 (ip), vehicle: Klucel (hydroxypropylcellulose) (HPC)); 98 % of control (dose: 25.0 mg/kg/injection, schedule: Q01DX009 (ip), vehicle: Klucel (hydroxypropylcellulose) (HPC)); 100 % of control (dose: 25.0 mg/kg/injection, schedule: Q04DX002 (ip), vehicle: Klucel (hydroxypropylcellulose) (HPC)).
For `COC1C(O)=C2C(=O)OC(C)(O)/C=C/C=C\C=C/C=C/C(c3ccccc3)NC(=O)/C=C/C=C/C=C/C=C/C2(C)C1O` (configuration not stated), the T/C by setting is: (dose: 2.5 mg/kg/injection, schedule: Q01DX009 (ip), vehicle: saline) 94 % of control; (dose: 5.0 mg/kg/injection, schedule: Q01DX009 (ip), vehicle: saline) 100 % of control; (dose: 10.0 mg/kg/injection, schedule: Q01DX009 (ip), vehicle: saline) 95 % of control.
Turning to `CCN(CC)CCNC(c1ccc(OC)cc1)C(Cl)(Cl)Cl` (configuration not stated), the T/C reads like this: (dose: 75.0 mg/kg/injection, schedule: Q01DX001 (ip), vehicle: saline) 97 % of control; (dose: 150.0 mg/kg/injection, schedule: Q01DX001 (ip), vehicle: saline) 91 % of control.
Turning to `NNC(=O)c1cc2ccncc2c2sc3ccccc3c12`, the T/C is 92 % of control under setting [2], 88 % of control under setting [4] and 97 % of control under setting [5].
`CCCCCCCCCCCCCCCCS(=O)(=O)c1ccc(Cl)cc1`: the T/C (dose: 100.0 mg/kg/injection, schedule: Q01DX009 (ip), vehicle: gum acacia) was 91 % of control; the T/C (dose: 100.0 mg/kg/injection, schedule: Q04DX003 (ip), vehicle: gum acacia) is 94 % of control; the T/C (dose: 200.0 mg/kg/injection, schedule: Q01DX009 (ip), vehicle: gum acacia) is 92 % of control; the T/C (dose: 200.0 mg/kg/injection, schedule: Q04DX003 (ip), vehicle: gum acacia) is 93 % of control; the T/C (dose: 400.0 mg/kg/injection, schedule: Q01DX009 (ip), vehicle: gum acacia) is 91 % of control; the T/C (dose: 400.0 mg/kg/injection, schedule: Q04DX003 (ip), vehicle: gum acacia) was 86 % of control.
On to `CC(=O)Oc1cccc2c1C(=O)c1ccccc1C2=O`, for which the T/C was 103 % of control (dose: 100.0 mg/kg/injection, schedule: Q01DX009 (ip), vehicle: saline); 103 % of control under setting [2]; 103 % of control (dose: 200.0 mg/kg/injection, schedule: Q01DX009 (ip), vehicle: saline); 97 % of control under setting [4]; 104 % of control (dose: 400.0 mg/kg/injection, schedule: Q01DX009 (ip), vehicle: saline); 103 % of control under setting [5].
Turning to `COc1cccc(NC(=O)Nc2ccccc2C(F)(F)F)c1`, the T/C is, setting by setting: (dose: 6.25 mg/kg/injection, schedule: Q01DX009 (ip), vehicle: saline with Tween-80) 92 % of control; (dose: 12.5 mg/kg/injection, schedule: Q01DX009 (ip), vehicle: saline with Tween-80) 92 % of control; (dose: 25.0 mg/kg/injection, schedule: Q01DX009 (ip), vehicle: saline with Tween-80) 90 % of control; under setting [8], 90 % of control; under setting [1], 94 % of control.
In the case of `Cc1cc[n+](Cc2ccccc2Cl)c(C)c1`, the T/C reads like this: (dose: 6.25 mg/kg/injection, schedule: Q01DX009 (ip), vehicle: saline) 105 % of control; (dose: 6.25 mg/kg/injection, schedule: Q04DX003 (ip), vehicle: saline) 96 % of control; (dose: 8.0 mg/kg/injection, schedule: Q01DX009 (ip), vehicle: saline) 99 % of control; (dose: 12.0 mg/kg/injection, schedule: Q01DX009 (ip), vehicle: saline) 96 % of control; (dose: 12.5 mg/kg/injection, schedule: Q04DX003 (ip), vehicle: saline) 102 % of control; (dose: 18.0 mg/kg/injection, schedule: Q01DX009 (ip), vehicle: saline) 105 % of control. Moreover, the T/C (dose: 25.0 mg/kg/injection, schedule: Q01DX009 (ip), vehicle: saline) was 113 % of control.
`CC(C)(C)NC(=O)C1C2C=CC(CC2)C1C(=O)NC(C)(C)C` (configuration not stated): the T/C is 100 % of control under setting [6], 96 % of control under setting [7] and 92 % of control under setting [9].
`CC(C)NC(=O)C1CC2c3cccc4[nH]c(Br)c(c34)CC2N(C)C1` (configuration not stated): the T/C is 94 % of control (dose: 5.0 mg/kg/injection, schedule: Q04DX003 (ip), vehicle: saline with Tween-80); 93 % of control (dose: 10.0 mg/kg/injection, schedule: Q04DX003 (ip), vehicle: saline with Tween-80); 88 % of control (dose: 20.0 mg/kg/injection, schedule: Q04DX003 (ip), vehicle: saline with Tween-80).
As for `Cc1ccc(N=C(N)NC#N)cc1`, the T/C was 89 % of control under setting [6], 86 % of control under setting [7] and 88 % of control under setting [9].
